In US10358434B2, “2-(3-pyridinyl)-1H-benzimidazole derivative compound and medicament containing same” (NIHON MEDI-PHYSICS CO., LTD., priority 2014, dated 2019):

Experiments:
[1] = target: T1, human CYP11B2 (Homo sapiens, UniProt P19099); test: Aldosterone production inhibition in V79-B2 cells expressing human CYP11B2 (ELISA); format: cell-based; details: for IC50: V79-B2 cells, corticosterone 100 nmol/L, 4 hours, aldosterone by ELISA, mean or mean ± SD; for Selectivity factor: mean IC50 cortisol production inhibition divided by mean IC50 aldosterone production inhibition
T1 construct: expressed in transfected cells; host or cells: V79 cells (Chinese hamster lung-derived fibroblasts, from ECACC through DS Pharma Biomedical)
T1 sequence (P19099 25-503): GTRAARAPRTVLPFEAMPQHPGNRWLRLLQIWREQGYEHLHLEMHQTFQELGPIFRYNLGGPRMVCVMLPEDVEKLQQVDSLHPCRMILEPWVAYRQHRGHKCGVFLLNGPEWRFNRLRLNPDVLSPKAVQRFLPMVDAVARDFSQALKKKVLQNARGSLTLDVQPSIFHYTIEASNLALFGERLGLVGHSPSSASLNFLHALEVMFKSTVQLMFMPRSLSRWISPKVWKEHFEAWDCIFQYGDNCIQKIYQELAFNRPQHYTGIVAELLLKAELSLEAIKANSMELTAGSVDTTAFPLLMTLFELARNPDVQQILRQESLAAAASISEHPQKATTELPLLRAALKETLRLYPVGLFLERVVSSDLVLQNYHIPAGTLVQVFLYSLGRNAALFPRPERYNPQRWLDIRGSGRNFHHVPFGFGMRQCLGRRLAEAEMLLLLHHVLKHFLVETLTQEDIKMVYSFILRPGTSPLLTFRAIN
Description: (§1) This inhibition experiment can be carried out by the following operations. Human CYP11B1 and human CYP11B2 are allowed to individually express in Chinese hamster lung-derived fibroblasts. Subsequently, 11-deoxycortisol is added to the cells expressing human CYP11B1 to a final concentration of 100 nmol/L, and corticosterone is added to the cells expressing human CYP11B2 to a final concentration of 100 nmol/L. At the same time, a target compound used as an analytical sample is added to each of the cells to a final concentration of 10^−4 to 10^4 nmol/L. Thereafter, the concentration of cortisol as a metabolite of CYP11B1 is measured in the cells expressing human CYP11B1 according to ELISA (Enzyme-Linked ImmunoSorbent Assay), and the concentration of aldosterone as a metabolite of CYP11B2 is measured in the cells expressing human CYP11B2 according to ELISA. Provided that the aldosterone concentration and the cortisol concentration without addition of any target compound as a sample are each set at 100%, an inhibition curve is produced, and then inhibitory activity (IC50) is calculated.
(§2) Chinese hamster lung-derived fibroblasts, V79 cells (acquired from ECACC (European Collection of Cell Cultures) through DS Pharma Biomedical), were allowed to express human CYP11B2, so as to produce V79-B2, and were also allowed to express human CYP11B1, so as to produce V79-B1. V79 cells were cultured in a DMEM medium (containing 4,500 mg/L D-glucose, L-glutamine, and 110 mg/L sodium pyruvate; manufactured by Life Technologies). V79-B2 or V79-B1 was inoculated on a microplate, and then cultured overnight. Thereafter, a mixed solution of corticosterone and a compound as a test target was added into a culture supernatant of V79-B2, and a mixed solution of 11-deoxycortisol and a compound as a test target was added into a culture supernatant of V79-B1. As a solvent for these mixed solutions, the aforementioned DMEM medium further containing 0.1 v/v % dimethyl sulfoxide was used. The concentration of corticosterone or 11-deoxycortisol was adjusted to be 100 nmol/L by addition of the solvent. As test target compounds, (R)-4-iodometomidate (IMTO), and Compounds 100, 200, 300, 400, 500, and 601 to 610 synthesized by methods shown in Examples 1, 3, 5, 6, 8, 10, 12, 14, 16, 18, 20, 22, 24, 26, and 28, respectively, were used. The aforementioned mixed solution was prepared such that the concentration of each compound was 10^−4 to 10^4 nmol/L in the mixed solution. One hour later, the culture supernatant of V79-B1 was recovered, and the concentration of cortisol as a metabolite of CYP11B1 was measured by ELISA (Enzyme-Linked ImmunoSorbent Assay). Moreover, four hours later, the culture supernatant of V79-B2 was recovered, and the concentration of aldosterone as a metabolite of CYP11B2 was measured by ELISA. Provided that the concentration of aldosterone or the concentration of cortisol obtained when none of IMTO and Compounds 100, 200, 300, 400 and 500 was added was defined as 100%, an inhibition curve was produced, and the inhibitory activity (IC50) of each compound was then calculated.
(§3) In Tables 5 and 6, the term “Selectivity factor” indicates a quotient of the mean value of IC50 for cortisol production inhibition divided by the mean value of IC50 for aldosterone production inhibition. In addition, the symbol “n” indicates the number of tests.

[2] = target: T2, human CYP11B1 (Homo sapiens, UniProt P15538); test: Cortisol production inhibition in V79-B1 cells expressing human CYP11B1 (ELISA); format: cell-based; details: 11-deoxycortisol 100 nmol/L, 1 hour, cortisol by ELISA, mean or mean ± SD
T2 construct: expressed in transfected cells; host or cells: V79 cells (Chinese hamster lung-derived fibroblasts, from ECACC through DS Pharma Biomedical)
T2 sequence (P15538 25-503): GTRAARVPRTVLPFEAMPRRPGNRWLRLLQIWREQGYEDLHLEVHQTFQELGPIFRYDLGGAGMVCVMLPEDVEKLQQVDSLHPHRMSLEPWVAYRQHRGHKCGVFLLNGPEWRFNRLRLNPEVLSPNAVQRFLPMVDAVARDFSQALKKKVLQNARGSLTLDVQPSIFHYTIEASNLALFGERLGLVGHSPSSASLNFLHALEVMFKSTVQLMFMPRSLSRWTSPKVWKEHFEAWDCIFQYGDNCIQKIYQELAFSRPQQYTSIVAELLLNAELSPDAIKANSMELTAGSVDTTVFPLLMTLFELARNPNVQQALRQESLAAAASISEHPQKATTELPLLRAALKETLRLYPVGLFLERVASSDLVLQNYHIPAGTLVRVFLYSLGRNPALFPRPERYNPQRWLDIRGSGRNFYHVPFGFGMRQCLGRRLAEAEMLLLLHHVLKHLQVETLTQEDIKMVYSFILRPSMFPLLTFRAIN
Description: as §1, §2, §3

| IC50 [1] [µM] | Selectivity factor [1] | IC50 [2] [µM] | Compound |
| --- | --- | --- | --- |
| 0.0069 ± 0.00287 | 15.8 | 0.109 ± 0.0158 | FCCn1c(-c2cncc(Cn3ccnc3)c2)nc2cc(F)c(Cl)cc21 [Compound 100, 6-Chloro-5-fluoro-1-(2-fluoroethyl)-2-[5-(imidazol-1-ylmethyl)pyridin-3-yl]benzimidazole] |
| 0.00747 | 19.0 | 0.142 | FCCn1c(-c2cncc(Cn3ccnc3)c2)nc2cc(F)c(Br)cc21 [Compound 200, 6-Bromo-5-fluoro-1-(2-fluoroethyl)-2-[5-(imidazol-1-ylmethyl)pyridin-3-yl]benzimidazole] |
